Data: patent US11427548B2 (Arvinas Operations, Inc., priority 2015, dated 2022)
“Also recorded” adds a separate entry of the source. Read-outs that look alike come from different tables or passages of the source.

Columns and labels:
Androgen Receptor [1] = target: T1, Androgen Receptor (Homo sapiens, UniProt P10275); experiment: Androgen Receptor ELISA assay (PathScan AR ELISA) in VCaP cells: AR degradation, Dmax and DC50; assay type: cell-based; settings: for Dmax: VCaP, read-out: VCaP Dmax (%); for DC50: read-out: VCaP DC50, concentration that caused 50% Androgen Receptor degradation
T1 construct: endogenous in cells; host or cells: VCaP cells
T1 sequence (P10275 1-920): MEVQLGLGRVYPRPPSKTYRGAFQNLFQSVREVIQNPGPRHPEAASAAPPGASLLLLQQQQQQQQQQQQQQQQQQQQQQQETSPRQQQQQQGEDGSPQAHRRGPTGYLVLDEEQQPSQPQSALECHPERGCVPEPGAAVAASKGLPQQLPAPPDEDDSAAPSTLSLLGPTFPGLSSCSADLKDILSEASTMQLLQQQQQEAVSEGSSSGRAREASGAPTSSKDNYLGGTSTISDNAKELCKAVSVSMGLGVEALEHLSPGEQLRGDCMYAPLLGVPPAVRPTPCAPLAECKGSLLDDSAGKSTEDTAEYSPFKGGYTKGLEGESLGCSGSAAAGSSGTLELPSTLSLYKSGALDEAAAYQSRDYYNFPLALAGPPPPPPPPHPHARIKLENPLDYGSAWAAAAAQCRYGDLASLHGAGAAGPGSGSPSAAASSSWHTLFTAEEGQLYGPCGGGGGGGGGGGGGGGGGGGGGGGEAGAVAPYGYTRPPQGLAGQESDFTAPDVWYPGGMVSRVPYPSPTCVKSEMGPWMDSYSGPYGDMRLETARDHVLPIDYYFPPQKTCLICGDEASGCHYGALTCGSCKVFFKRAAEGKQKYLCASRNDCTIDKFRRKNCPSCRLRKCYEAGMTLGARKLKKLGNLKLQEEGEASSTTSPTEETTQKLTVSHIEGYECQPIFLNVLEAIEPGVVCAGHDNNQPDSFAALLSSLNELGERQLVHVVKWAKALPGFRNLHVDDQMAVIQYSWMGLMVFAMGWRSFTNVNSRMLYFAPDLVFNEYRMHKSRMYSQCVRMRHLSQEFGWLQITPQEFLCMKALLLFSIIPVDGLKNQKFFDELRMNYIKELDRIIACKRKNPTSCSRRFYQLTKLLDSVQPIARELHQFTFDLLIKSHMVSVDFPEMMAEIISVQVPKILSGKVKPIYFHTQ
In short: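 After 24 h exposure of VCaP cells (charcoal-stripped serum, 0.1 nM R1881 agonist, 0.1% DMSO) to seven half-log compound concentrations, residual AR in lysates was measured by PathScan ELISA (TMB absorbance, 450 nm). Cells were plated at 30,000/well and grown at least 3 days beforehand.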

AR = target: T2, AR (Homo sapiens, UniProt P10275+P40337, T878A); experiment: AR degradation of PROTAC is E3 ligase dependent (LNCaP cells); assay type: cell-based
T2 construct: Compounds have been evaluated in this assay in LNCaP and/or VCaP cells utilizing similar protocols; endogenous in cells; host or cells: LNCaP cells
T2 sequence (P10275 whole entry T878A): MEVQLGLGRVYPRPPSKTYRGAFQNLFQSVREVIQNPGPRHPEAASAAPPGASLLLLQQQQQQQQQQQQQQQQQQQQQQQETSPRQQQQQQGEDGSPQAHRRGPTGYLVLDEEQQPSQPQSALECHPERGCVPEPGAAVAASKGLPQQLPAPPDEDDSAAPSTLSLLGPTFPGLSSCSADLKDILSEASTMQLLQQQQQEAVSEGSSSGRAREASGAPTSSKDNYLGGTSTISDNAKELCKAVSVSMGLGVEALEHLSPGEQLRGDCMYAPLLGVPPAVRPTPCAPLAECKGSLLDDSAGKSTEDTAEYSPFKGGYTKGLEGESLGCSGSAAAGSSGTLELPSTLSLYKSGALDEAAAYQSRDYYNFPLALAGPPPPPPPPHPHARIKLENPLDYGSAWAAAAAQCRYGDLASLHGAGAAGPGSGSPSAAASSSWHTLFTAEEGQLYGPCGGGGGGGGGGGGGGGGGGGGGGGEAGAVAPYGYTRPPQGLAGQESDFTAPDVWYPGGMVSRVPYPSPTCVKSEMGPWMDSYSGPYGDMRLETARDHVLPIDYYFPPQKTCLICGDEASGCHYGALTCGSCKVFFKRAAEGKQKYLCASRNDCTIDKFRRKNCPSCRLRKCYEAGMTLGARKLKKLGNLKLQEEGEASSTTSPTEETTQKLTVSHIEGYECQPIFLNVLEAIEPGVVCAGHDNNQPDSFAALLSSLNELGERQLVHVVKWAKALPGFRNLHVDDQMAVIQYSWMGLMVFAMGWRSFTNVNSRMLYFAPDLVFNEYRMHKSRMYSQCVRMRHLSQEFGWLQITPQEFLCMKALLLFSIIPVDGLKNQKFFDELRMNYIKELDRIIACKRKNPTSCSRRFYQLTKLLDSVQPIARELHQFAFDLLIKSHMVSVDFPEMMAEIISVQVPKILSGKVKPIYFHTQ
T2 sequence (P40337 whole entry): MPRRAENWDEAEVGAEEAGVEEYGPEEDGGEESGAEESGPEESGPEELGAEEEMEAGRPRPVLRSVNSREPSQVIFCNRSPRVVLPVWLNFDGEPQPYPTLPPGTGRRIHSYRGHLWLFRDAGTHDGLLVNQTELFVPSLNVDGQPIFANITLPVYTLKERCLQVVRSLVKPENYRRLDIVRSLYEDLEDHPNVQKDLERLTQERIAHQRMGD
T2 sequence (Q15369 whole entry partner): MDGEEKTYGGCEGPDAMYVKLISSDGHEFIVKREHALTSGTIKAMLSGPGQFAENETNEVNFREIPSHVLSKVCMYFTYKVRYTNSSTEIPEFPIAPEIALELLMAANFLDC
T2 sequence (Q15370 whole entry partner): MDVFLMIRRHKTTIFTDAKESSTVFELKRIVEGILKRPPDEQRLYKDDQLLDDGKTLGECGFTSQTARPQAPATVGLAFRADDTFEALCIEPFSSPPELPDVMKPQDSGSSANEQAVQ
From the text: FIG. 7A and FIG. 7B. AR degradation of PROTAC is E3 ligase dependent.
8. AR Degradation of PROTAC is E3 Ligase Dependent.

Androgen Receptor [2] = target: T3, Androgen Receptor (Homo sapiens, UniProt P10275+P40337, T878A); experiment: Androgen Receptor ELISA assay (PathScan AR ELISA) in LNCaP cells: AR degradation, Dmax and DC50; assay type: cell-based
T3 construct: Compounds have been evaluated in this assay in LNCaP and/or VCaP cells utilizing similar protocols; endogenous in cells; host or cells: LNCaP cells
T3 sequence (P10275 whole entry T878A): as the sequence (P10275 whole entry T878A) above
T3 sequence (P40337 whole entry): as the sequence (P40337 whole entry) above
T3 sequence (Q15369 whole entry partner): as the sequence (Q15369 whole entry partner) above
T3 sequence (Q15370 whole entry partner): as the sequence (Q15370 whole entry partner) above

[3] = PROTAC subcutaneous pharmacokinetics in CD-1 mice; assay type: in vivo; settings: male, plasma, CD-1 Mouse, 10 mg/kg SC dose, vehicle ESD-1
Method: 9. PROTAC Prodrug Oral Pharmacokinetics and PROTAC Subcutaneous Phamacokinetics.
Representative Pharmacokinetic Procedure
Male CD-1 mice (6-8 weeks old, weighing 20-30 g, 3 per study) with free access to food and water were administered with the test article at 10 mg/kg either by oral gavage or sub-cutaneous injection in the formulation specified in tables 20 and 21, at 10 mL/kg.
Approximately 0.04 mL blood samples were collected from the dorsal metatarsal vein serially at 0.25, 0.5, 1, 2, 4, 8 and 24 h timepoints; heparin was used as the anticoagulant. The samples were centrifuged at 4000 g for 5 min at 4° C. then stored at −75° C. prior to analysis.
The plasma samples were analysed via an LC/MS/MS method quantitating for unchanged, administered test article, and/or a derivative species as appropriate. WinNonlin (Phoenix™) was used for the pharmacokinetic calculations and modeling, to generate parameters such as Cmax and AUC.

[4] = system: LNCaP cells transduced with AR F876L construct; experiment: Anti-proliferation in LNCaP F876L (CellTiterGlo); assay type: cell-based; settings: Charcoal Stripped Serum media, indicated doses for 7 days
Method: FIG. 3. Anti-proliferation in LNCaP F876L. […] LNCaP cells transduced with AR F876L construct were cultured in Charcoal Stripped Serum containing media.
4. Anti-Proliferation in LNCaP F876L.
LNCaP cells transduced with AR F876L construct were cultured in Charcoal Stripped Serum containing media. […] CellTiterGlo reagent (Promega) was employed to assess proliferation.

VCaP xenograft = experiment: Tumor growth inhibition in VCaP xenograft model; assay type: in vivo; settings: VCaP cells s.c. in castrated CB17 scid mice; enzalutamide PO, QD, 30 mpk; Example 163 IP, QD, 30, 10 and 3 mpk
From the text: FIG. 6. Tumor growth inhibition in VCaP xenograft model. VCaP cells were implanted into CB17 scid mice subcutaneously. Once the tumors were palpable, the mice were castrated, leading to temporary tumor stasis.
7. Tumor Growth Inhibition in VCaP Xenograft Model.
VCaP cells were implanted into CB17 scid mice subcutaneously. Once the tumors were palpable, the mice were castrated, leading to temporary tumor stasis.

VCaP cells = experiment: VCaP cell proliferation assay (Cell Titer Glo), GI50; assay type: cell-based; settings: Homo sapiens; VCaP cells, 0.1 nM R1881; Table 37; read-out: GI50, Inhibition of VCaP Proliferation
In short: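 VCaP cells at 7,500/well were androgen-depleted for at least 3 days in phenol red-free RPMI with 5% charcoal-stripped FBS, then dosed with PROTACs plus 0.1 nM R1881. Growth was read by CellTiter Glo luminescence against a baseline taken on the day of dosing, giving GI50.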

C57B6 mouse model = experiment: Prostate involution in C57B6 mouse model; assay type: in vivo; settings: 12-week old male C57BL/6 mice; IP, QD, 1 and 3 mpk; 10 days
From the text: FIG. 5. Prostate involution in C57B6 mouse model.
6. Prostate Involution in C57B6 Mouse Model.

SMILES: Cc1ncsc1-c1ccc(CNC(=O)[C@@H]2C[C@@H](O)CN2C(=O)[C@@H](NC(=O)COCCCOCCCCCOc2ccc(N3C(=S)N(c4ccc(C#N)c(C(F)(F)F)c4)C(=O)C3(C)C)cc2)C(C)(C)C)cc1 [Example 1, (2S,4R)-1-((S)-2-(2-(3-(5-(4-(3-(4-cyano-3-(trifluoromethyl)phenyl)-5,5-dimethyl-4-oxo-2-thioxoimidazolidin-1-yl)phenoxy)pentyloxy)propoxy)acetamido)-3,3-dimethylbutanoyl)-4-hydroxy-N-(4-(4-methylthiazol-5-yl)benzyl)pyrrolidine-2-carboxamide]
- Dmax (Androgen Receptor [1]): 51 to 70%
- DC50 (Androgen Receptor [1]; VCaP cells): < 50 nM
- AR degradation activity in the presence of VHL E3 ligase ligand compound B (AR; 24 hours, 10 uM compound B): greatly diminishes the AR degradation activity
- degradation of AR (AR; PROTAC versus inactive epimer analog unable to bind VHL E3 ligase): significant degradation of AR
- DC50 (Androgen Receptor [2]; concentration that caused 50% Androgen Receptor degradation): < 50 nM
- Dmax (Androgen Receptor [2]; highest percentage of Androgen Receptor degradation observed): > 71%
- AUC(0-t) ([3]; read-out: Plasma Exposure AUC0-24): 15600 ng·h/mL
- Cmax ([3]; read-out: Plasma Exposure Cmax): 1150 ng/mL
- proliferation / agonist activity in LNCaP F876L cells [4]: did not exhibit agonist activity; also recorded: Anti-proliferation in LNCaP F876L cells observed

SMILES: Cc1ncsc1-c1ccc(CNC(=O)[C@@H]2C[C@@H](O)CN2C(=O)[C@@H](NC(=O)COCCCCOc2ccc(C(=O)N[C@H]3C(C)(C)[C@H](Oc4ccc(C#N)c(Cl)c4)C3(C)C)cc2)C(C)(C)C)cc1 [Example 163, (2S,4R)-1-[(2S)-3,3-dimethyl-2-{2-[4-(4-{[trans-3-(3-chloro-4-cyanophenoxy)-2,2,4,4-tetramethylcyclobutyl]carbamoyl}phenoxy)butoxy]acetamido}butanoyl]-4-hydroxy-N-{[4-(4-methyl-1,3-thiazol-5-yl)phenyl]methyl}pyrrolidine-2-carboxamide]
- Tumor growth inhibition (VCaP xenograft): Tumor growth inhibition was observed
- GI50 (VCaP cells): ≤ 50 nM
- Dmax (Androgen Receptor [1]; highest percentage of Androgen Receptor degradation observed, VCaP cells (Table 32)): > 71%
- DC50 (Androgen Receptor [1]; VCaP cells (Table 32)): < 50 nM
- prostate weights (prostate involution) (C57B6 mouse model): significant reduction in prostate weights; also recorded: significant prostate involution
